Data taken from patent US11378572B2, “Therapeutic agent for immune cell migration-caused disease and method for screening same” (ZYMEDI CO., LTD., priority 2017, dated 2022).

Key:
PAH model = test: Monocrotaline PAH model, anti-KRS antibody; assay type: in vivo, SD rats
From the text: To induce PAH in 7-week-old SD rats (Orient bio), 60 mpk of MCT (monocrotaline) was subcutaneously injected. Then rats were divided into 4 groups (5 animals in each group), and administered with either of 1 mpk of mock human IgG (Thermo Fisher Scientific, negative control), 1 mpk or 10 mpk of anti-KRS antibody (N3 antibody), 25 mpk of sildenafil (positive control) for 3 weeks. All antibodies were intravenously injected twice a week and sildenafil was orally administered everyday.
Three weeks later, rats were anesthetized with isoflurane, and blood flow and pressure were measured using an MPVS cardiovascular pressure and volume system (model name: MPVS Ultra, manufactured by Millar Instruments). Right ventricular systolic pressure (RVESP) and diastolic pressure, left ventricular systolic pressure and diastolic pressure were measured using a dedicated catheter (Mikro-Tip rat pressure catheter, manufactured by Millar Instruments). Cardiac output was measured using a perivascular blood flow probe (Transonic® Flowprobes, manufactured by […]), and experimental techniques were performed in the same manner as described in the literature: Pacher P, Nagayama T, Mukhopadhyay P, Batkai S, Kass D A. Measurement of cardiac function using pressure-volume conductance catheter technique in mice and rats. Nat Protoc 2008, 3(9):1422-34.
Collected lungs were fixed in PFA (paraformaldehyde) according to a conventional procedure, and then embedded in paraffin through water washing, dehydration, and tissue clearing processes. Lung tissue paraffin blocks of rats were cut to a thickness of […] and slides were prepared. Thereafter, staining was performed as follows. First, slides were treated with xylene 3 times for 5 minutes, followed by treatments with 100% ethanol, 95% ethanol, 90% ethanol, 70% ethanol, DW for 2 minutes in this order and washed with PBS for 5 minutes. After treatment with 0.3% H2O2, slides were washed twice with PBS for 5 minutes. After soaking in 0.01M citrate buffer and heating, slides were washed with PBS-T (0.03% tween 20). After 30 minutes blocking at room temperature (2% BSA & 2% goat serum in PBS), tissues were stained with anti-CD68 antibody (1:200, ED1 clone, Abcam) overnight at 4° C. After washing three times with PBS-T for 5 minutes, tissues were treated with polymer-HRP anti-mouse envision kit (DAKO) for 1 hour at 4° C. After washing three times with PBS-T, color was developed by treatment with DAB substrate buffer and DAB chromogen 20. Thus stained tissues were treated with Mayer's hematoxylin (Sigma) for 1 minute, and then treated twice for 2 minutes in the order of 70% ethanol, 90% ethanol, 95% ethanol, and 100% ethanol. Finally, xylene was treated three times for 5 minutes and observed with an optical microscope.

KRS = target: T1, KRS (Mus musculus, UniProt Q99MN1); test: KRS level in plasma membrane/cytosol fractions by western blot (KRS translocation to the plasma membrane); assay type: cell-based; conditions: RAW 264.7 cells, LN421 l g/ml, 0, 12, 24 hour
T1 construct: KRS, which is expressed in monocytes/macrophages and usually present in the cytoplasmic domain, translocates to the plasma membrane by LN421 treatment; endogenous in cells; host or cells: RAW 264.7
Description: After dispensing RAW 264.7 cells (2×10^6 cells) in 100 mm dish and incubating for 18 hours, cells were treated with LN421 l g/ml in serum free DMEM media and harvested at 0 hour, 12 hour, 24 hour. Proteins of RAW 264.7 cells were separated into the cytosol and membrane fractions using ProteoExtract Subcellular Proteome Extraction Kit (Calbiotech, cat #539790). Obtained proteins were electrophoresed and transferred to PVDF membrane (Milipore) and blocked with 3% skim milk. KRS was then detected by western blot. Specifically, KRS polyclonal antibody (rabbit, Neomics, Co. Ltd. #NMS-01-0005) was added and reacted for 1 hour. Unbound antibody was removed and the membrane was added and reacted with anti-rabbit secondary antibody (ThermoFisher Scientific, #31460). After reacting with the secondary antibody, films were exposed in the dark room using ECL reagent as a substrate. […]
First, in order to determine whether various KRS inhibitor candidates could exert inhibitory effect on the KRS translocation to the plasma membrane, RAW 264.7 cells (2×10^6 cells) were dispensed in 100 mm dishes and incubated for 18 hours, followed by treatment with laminin 421 1 μg/ml in serum free DMEM, and 100 nM of each of various KRS inhibitor candidates, and cells were further incubated for 12 hours. […] Afterwards, KRS was detected by western blot, and the specific method were as described in Example 3. […]

RAW 264.7 cells = test: Transwell migration assay of monocytes/macrophages; assay type: cell-based
Description: Among several extracellular matrix (ECM), it was examined which ECM promotes the migration and infiltration of immune cells, typically monocytes/macrophages. A transwell migration assay was performed using collagen (Col), fibronectin (FN) and laminin (LN) as extracellular matrices, and detailed methods were as follows. Transwells (Corning, #3421-5 mm) were coated with gelatin (0.5 mg/ml) and RAW 264.7 cells (1×10^5 cells/well) were seeded into the top chambers. Serum free DMEM (500 μl) containing 10 μg/ml of laminin (laminin mixture, Biolamina), fibronectin or collagen, respectively, was placed in the bottom chambers. After 24 hours, cells were fixed with 70% methanol for 30 minutes and stained with 50% hematoxylin for 30 minutes. After removing non-migrating cells from the top of the membrane with a cotton swab, the membrane was taken and mounted on the slide. Migrating cells on the underside of the membrane were observed and quantified under a high magnification microscope.
Effect of laminin subtypes on the immune cell migration and infiltration was evaluated. A transwell migration assay was performed in the same manner as in Example 1 using LN111, LN211, LN221, LN411, LN421, LN511, and LN521 as various laminin subtype proteins (purchased from Biolamina). Specific sequences of laminin subtypes are referred to α4 chain of SEQ ID NO:4, α2 chain of SEQ ID NO: 10, α5 chain of SEQ ID NO: 11, β2 chain of SEQ ID NO:6, β1 chain of SEQ ID NO: 12, γ1 chain of SEQ ID NO: 8. according to the chain forming each laminin subtype,
For each of the transformed macrophages, a transwell migration assay was performed in the same manner as in Example 1 using 1 μg/ml of laminin 421.
Thus identified agents as inhibiting the translocation of KRS to the plasma membrane was added to the LN421-treated macrophages to perform a transwell migration assay. […] Migrating cells on the underside of the membrane were observed and quantified under a high magnification microscope. […]

[1] = MCT + sildenafil 25 mpk oral everyday, 3 weeks (n = 5)

T1 sequence (Q99MN1 whole entry, the tested form may be a part): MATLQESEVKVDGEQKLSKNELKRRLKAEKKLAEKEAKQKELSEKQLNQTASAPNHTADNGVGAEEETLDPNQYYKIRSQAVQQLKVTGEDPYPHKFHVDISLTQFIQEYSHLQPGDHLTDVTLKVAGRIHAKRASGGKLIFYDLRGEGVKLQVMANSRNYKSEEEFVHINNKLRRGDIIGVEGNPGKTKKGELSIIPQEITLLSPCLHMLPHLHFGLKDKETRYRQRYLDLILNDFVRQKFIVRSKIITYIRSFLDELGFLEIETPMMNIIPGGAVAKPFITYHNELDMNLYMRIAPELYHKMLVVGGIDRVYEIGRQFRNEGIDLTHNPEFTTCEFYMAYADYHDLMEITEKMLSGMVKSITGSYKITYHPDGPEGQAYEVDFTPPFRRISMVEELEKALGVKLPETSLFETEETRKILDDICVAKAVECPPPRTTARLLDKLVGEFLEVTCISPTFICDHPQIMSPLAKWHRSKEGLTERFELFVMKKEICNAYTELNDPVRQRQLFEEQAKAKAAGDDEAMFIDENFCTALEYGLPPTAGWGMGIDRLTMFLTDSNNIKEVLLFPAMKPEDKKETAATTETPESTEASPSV

Compound: CCCc1nn(C)c2c(=O)[nH]c(-c3cc(S(=O)(=O)N4CCN(C)CC4)ccc3OCC)nc12 [sildenafil]
- CO (PAH model; MCT + sildenafil 25 mpk oral everyday, 3 weeks (n = 4)): 49.6 ± 17.7 mL/min
- LVEDP (PAH model; [1]): 3.6 ± 2.3 mmHg
- LVESP (PAH model; [1]): 83.2 ± 4.7 mmHg
- RVEDP (PAH model; [1]): 2.6 ± 1.3 mmHg
- RVESP (PAH model; [1]): 48.4 ± 9.6 mmHg
- body weight, absolute change (PAH model; MCT + sildenafil (n = 5)): 104.1 ± 26.4 g
- body weight, relative change (PAH model; MCT + sildenafil (n = 5)): 49.8 ± 10.5%
- findings of D-shaped left ventricle (echocardiography) (PAH model; number of animals with finding): three mice

Compound: LN421: laminin subtype α4β2γ1, purchased from Biolamina [reference compound]
- level of KRS detection in the plasma membrane fractions (KRS): increased
- migration of monocytes/macrophages among laminin subtypes (RAW 264.7 cells; LN111, LN211, LN221, LN411, LN421, LN511, LN521 compared): specifically reacted

Compound: laminin [reference compound]
- migration of monocytes/macrophages among extracellular matrices (RAW 264.7 cells; 10 μg/ml in bottom chamber, 24 hours, versus collagen, fibronectin): most strongly promoted
